Experimental data published in US8138188B2, “Melanocortin type 4 receptor agonist piperidinoylpyrrolidines” (Pfizer Inc., priority 2006, dated 2012).

Columns and labels:
[1] = In vitro metabolism rate determination, human liver microsome (HLM) assay; assay type: in vitro ADME; conditions: human liver microsomes, substrate 1 μM; read-out: HLM (intrinsic clearance)
From the text: In vitro Metabolism Rate Determination (Human Liver Microsome (HLM); Rat Liver Microsome (RLM) Assay)
Many drugs are metabolised by the cytochrome P450 mono-oxygenase system. This enzyme is found in high concentrations in the liver and is bound to the endoplasmic reticulum of the hepatocyte. The enzyme system can be obtained in semi-purified state by the preparation of the hepatic microsomal fractions. Determining a compound's in vitro half-life in such a system provides a useful indicator of metabolic stability.
Methodology For In Vitro Rate Determination Using Hepatic & Supermix Microsomes
The method outlined below is for a total incubation volume of 1.5 ml.
1. The following mixture is prepared in a test tube:
2. Defrost microsomes at room temperature and add sufficient microsomes to give a final concentration of 0.5 nmol cytochrome P450/ml of incubation e.g. for a 1.5 ml incubation, the volume of microsomes to be added is:
[formula] 3. Add sufficient MilliQ water to give a total incubation volume of 1.425 ml. 4. Remove 237.5 μl of incubation mix and place in test tube for PNA positive control. Add 2.5 μl of PNA solution, whirlimix, and put tube into a rack in the thermostatically controlled shaking water bath 5. Remove 100 μl for no substrate control and dispense in test tube. Place test tube in a rack in the thermostatically controlled shaking water bath. 6. Add substrate to the incubation. The substrate should be at an initial concentration of 1 μM. The volume of substrate required in the remaining 1.162.5 ml incubation is calculated as follows:
[formula] • N.B. The volume of organic solvent added should not exceed 0.1% of the total incubation volume. 7. Remove 100 μl of incubation mix into test tube for no cofactor control. Whirlimix and put into a rack in the thermostatically controlled shaking water bath. 8. Pre-incubate the tube containing the incubation mix, also positive control and no cofactor tubes in the thermostatically controlled shaking water bath set at 37° C. for approx 5 min. 9. Add NADP to initiate reaction (75 μl to each 1.162.5 ml incubation mix, 12.5 μl to positive control tube and 5 μl to no substrate tube) and take first time point immediately. The PNA positive control, no cofactor control and no substrate tubes are incubated for the total incubation time. 10. Remove 100 μl aliquots up to 9 different sampling points from 0 to 60 min (usually 0, 3, 5, 10, 15, 20, 30, 45 & 60 min) and terminate reaction. Longer incubation times can be used, but, after 120 min the microsomes deteriorate. The reaction may be terminated by addition of organic solvent, acid or base. At the end of the incubation process the no cofactor and no substrate controls in a similar manner i.e. terminate with the same reagent. 11. PNA Positive Control Procedure: • After the final sample has been taken, remove the positive control and add 1 ml 20% TCA to this tube. Also prepare a tube containing 250 μl of a PNP standard at 50 μM, and add 1 ml 20% TCA. Whirlimix both tubes and leave for approx 5 min to allow the protein to precipitate. • Centrifuge both tubes for approx 5 min in an instrument set at 3500 rpm. Remove 1 ml of supernatant and place into clean test tubes, discard the remainder. • Add 1 ml 10M NaOH to the supernatant, whirlimix, and leave to stand for approx min. Blank spectrophotometer with distilled water at 400 nm then measure absorbance of the PNP standard against distilled water. The microsomal 4-nitroanisole O-demethylase activity is calculated as follows: Calculation of Results
[formula] • The activity value from the incubation MUST be equal to or greater than 85% of the mean value of the batch used for the incubation to be valid. If this criteria is not met, then the incubation must be repeated. 11. Analyse samples (including no cofactor and no substrate control) by a specific assay for the substrate to determine the disappearance kinetics. Analysis Of Data […]

CYP3A4 = molecular target: T1, CYP3A4 (Homo sapiens, UniProt P08684); experiment: High density drug-drug interactions (DDI) 3 μM cocktail screen in human liver microsomes; assay type: in vitro ADME; conditions: 3 uM test compound, pooled human liver microsomes, probe midazolam 2 μM; read-out: % Inhibition of 3A4 metabolism at 3 uM
T1 construct: utilizes human liver microsomes together with isoform-specific clinical drug probes; from tissue; host or cells: human liver microsomes
T1 sequence (P08684 whole entry, canonical isoform): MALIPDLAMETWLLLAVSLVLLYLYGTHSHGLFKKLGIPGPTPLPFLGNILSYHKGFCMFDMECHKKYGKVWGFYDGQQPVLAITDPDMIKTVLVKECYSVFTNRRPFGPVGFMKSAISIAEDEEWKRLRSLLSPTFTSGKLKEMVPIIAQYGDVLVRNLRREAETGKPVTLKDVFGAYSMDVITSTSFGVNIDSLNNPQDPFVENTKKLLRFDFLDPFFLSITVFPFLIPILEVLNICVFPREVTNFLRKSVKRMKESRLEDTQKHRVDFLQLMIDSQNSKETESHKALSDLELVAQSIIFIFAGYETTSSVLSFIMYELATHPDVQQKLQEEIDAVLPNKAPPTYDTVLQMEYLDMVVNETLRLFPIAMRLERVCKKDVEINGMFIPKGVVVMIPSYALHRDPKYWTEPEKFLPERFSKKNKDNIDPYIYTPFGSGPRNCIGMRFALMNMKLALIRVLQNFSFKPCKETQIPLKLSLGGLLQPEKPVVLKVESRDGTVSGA
Procedure: High Density Drug-Drug Interactions (DDI) 3 μM Cocktail Screen
A drug interaction is a situation in which a substance affects the activity of another drug, i.e. the effects are increased or decreased, or together they produce a new effect that neither produces on its own. Drug interactions may be the result of various processes but a relatively common one is where one drug affects the pharmacokinetics of another by inhibiting the cytochrome P450 that metabolises it. Because of the importance of these phenomena, assessment of the DDI potential for new chemical entities (NCEs) is considered important early on in the drug discovery process.
The DDI cocktail screen in human liver microsomes (HLM) is run in a fully automated fashion and the aim of the screen is to provide a single-point assessment of the DDI potential of new chemical entity (NCE; tested at 3 μM) against the 4 primary cytochrome P450 enzymes, 1A2, 2D6, 2C9 and 3A4.
The substrate cocktail approach for P450 DDI utilizes human liver microsomes together with isoform-specific clinical drug probes and permits the simultaneous measurement of the inhibition of P450 1A2, 2C9, 2D6 & 3A4 activities in a single incubation. This is run in high throughput with simultaneous detection of metabolites by LC-MS/MS. This method has been thoroughly tested and evaluated using standard compounds.
Appearance of the metabolite of each substrate is measured over time in the presence and absence of the NCE (test compound/inhibitor) at a concentration of 3 μM. The compounds are assessed for their inhibitory potential as a percentage value and interpreted using the following scheme.

MC4 receptor = MC4 receptor (Homo sapiens, UniProt P32245); experiment: MC4 functional agonist potency (EC50), assay protocol E of US2005/0176772 / WO 2005/077935; assay type: cell-based; conditions: functional potency at the MC4 receptor
MC4 receptor, sequence (P32245 whole entry): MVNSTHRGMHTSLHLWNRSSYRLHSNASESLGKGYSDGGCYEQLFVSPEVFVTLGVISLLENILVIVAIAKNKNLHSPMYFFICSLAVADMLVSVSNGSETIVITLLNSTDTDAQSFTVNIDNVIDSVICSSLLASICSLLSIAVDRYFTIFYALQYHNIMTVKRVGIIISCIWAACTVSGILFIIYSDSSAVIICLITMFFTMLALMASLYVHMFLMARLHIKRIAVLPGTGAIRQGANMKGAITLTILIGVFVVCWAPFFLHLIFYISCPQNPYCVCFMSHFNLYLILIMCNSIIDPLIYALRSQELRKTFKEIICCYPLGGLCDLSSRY
Procedure: The compounds of formula (I) of the present invention have utility as MCR4 agonists in the treatment of various disease states.
MC5 and MC4 EC50 activity was determined as described by assay protocols D and E, respectively, in US2005/0176772 (pages 28-30).

SMILES | microsomal CLint at 1 μM [1] | inhibition at 3 μM (CYP3A4) | EC50 (MC4 receptor)
C[C@@H]1CN(C(=O)[C@@H]2CN(c3ccc(C#N)cn3)C[C@H]2c2ccc(Cl)cn2)C[C@H](C)[C@@]1(O)c1ccc(F)cc1 [Example 1, 6-[(3S,4S)-3-(5-Chloropyridin-2-yl)-4-{[(3R,4R,5S)-4-(4-fluorophenyl)-4-hydroxy-3,5-dimethylpiperidin-1-yl]carbonyl}pyrrolidin-1-yl]nicotinonitrile] | < 7 µL/min/mg | 54% | < 0.52 nM
C[C@@H]1CN(C(=O)[C@@H]2CN(c3ccc(C#N)nn3)C[C@H]2c2ccc(Cl)cn2)C[C@H](C)[C@@]1(O)c1ccc(F)cc1 [Example 2, 6-[(3S,4S)-3-(5-Chloropyridin-2-yl)-4-{[(3R,4R,5S)-4-(4-fluorophenyl)-4-hydroxy-3,5-dimethylpiperidin-1-yl]carbonyl}pyrrolidin-1-yl]pyridazine-3-carbonitrile] | < 12 µL/min/mg | 64% | 4.53 nM
COc1ccc(N2C[C@@H](C(=O)N3C[C@@H](C)[C@](O)(c4ccc(F)cc4)[C@@H](C)C3)[C@H](c3ccc(Cl)cn3)C2)nn1 [Example 4, (3R,4R,5S)-1-{[(3S,4S)-4-(5-chloropyridin-2-yl)-1-(6-methoxypyridazin-3-yl)pyrrolidin-3-yl]carbonyl}-4-(4-fluorophenyl)-3,5-dimethylpiperidin-4-ol] | 60 µL/min/mg | 38% | 
C[C@@H]1CN(C(=O)[C@@H]2CN(c3ccc(Cl)nn3)C[C@H]2c2ccc(F)cn2)C[C@H](C)[C@@]1(O)c1ccc(Cl)cc1 [Example 5, (3R,4R,5S)-4-(4-chlorophenyl)-1-{[(3S,4S)-1-(6-chloropyridazin-3-yl)-4-(5-fluoropyridin-2-yl)pyrrolidin-3-yl]carbonyl}-3,5-dimethylpiperidin-4-ol] | < 7 µL/min/mg | 34% | 137 nM
C[C@@H]1CN(C(=O)[C@@H]2CN(c3ccc(=O)[nH]n3)C[C@H]2c2ccc(F)cn2)C[C@H](C)[C@@]1(O)c1ccc(Cl)cc1 [Example 6, 6-[(3S,4S)-3-{[(3R,4R,5S)-4-(4-chlorophenyl)-4-hydroxy-3,5-dimethylpiperidin-1-yl]carbonyl}-4-(5-fluoropyridin-2-yl)pyrrolidin-1-yl]pyridazin-3(2H)-one] |  | 32% | 18.9 nM
C[C@@H]1CN(C(=O)[C@@H]2CN(c3ccc(=O)n(C)n3)C[C@H]2c2ccc(F)cn2)C[C@H](C)[C@@]1(O)c1ccc(Cl)cc1 [Example 7, 6-[(3S,4S)-3-{[(3R,4R,5S)-4-(4-chlorophenyl)-4-hydroxy-3,5-dimethylpiperidin-1-yl]carbonyl}-4-(5-fluoropyridin-2-yl)pyrrolidin-1-yl]-2-methylpyridazin-3(2H)-one] | 21 µL/min/mg | 19% | 40 nM
C[C@@H]1CN(C(=O)[C@@H]2CN(c3cncc(F)c3)C[C@H]2c2ccc(Cl)cn2)C[C@H](C)[C@@]1(O)c1ccccn1 [Example 8, (3R,4R,5S)-1-{[(3S,4S)-4-(5-chloropyridin-2-yl)-1-(5-fluoropyridin-3-yl)pyrrolidin-3-yl]carbonyl}-3,5-dimethyl-4-pyridin-2-ylpiperidin-4-ol] | > 440 µL/min/mg | 94% | 27.5 nM
C[C@@H]1CN(C(=O)[C@@H]2CN(c3cccnn3)C[C@H]2c2ccc(Cl)cn2)C[C@H](C)[C@@]1(O)c1ccccn1 [Example 9, (3R,4R,5S)-1-{[(3S,4S)-4-(5-chloropyridin-2-yl)-1-pyridazin-3-ylpyrrolidin-3-yl]carbonyl}-3,5-dimethyl-4-pyridin-2-ylpiperidin-4-ol] | 240 µL/min/mg | 68% | 39.3 nM
C[C@@H]1CN(C(=O)[C@@H]2CN(c3ccc(=O)n(C)n3)C[C@H]2c2ccc(Cl)cn2)C[C@H](C)[C@@]1(O)c1ccc(Cl)cn1 [Example 10] | 20.5 µL/min/mg | 19% | 11.9 nM
COc1ccc(C2CN(c3ccc(C#N)nn3)CC2C(=O)N2CC(C)C(O)(c3ccc(F)cc3)C(C)C2)cn1 (stereo not shown) [Example 16] | < 45.5 µL/min/mg | 83% | 34.3 nM
C[C@@H]1CN(C(=O)[C@@H]2CN(c3ccc(=O)n(C)n3)C[C@H]2c2ccc(Cl)cn2)C[C@H](C)[C@@]1(O)C1CCCCC1 [Example 17] | > 440 µL/min/mg | 35% | 1.59 nM
C[C@@H]1CN(C(=O)[C@@H]2CN(c3ccc(=O)n(C)n3)C[C@H]2c2ccc(Cl)cn2)C[C@H](C)[C@@]1(O)C1CC1 [Example 18] | 67 µL/min/mg | 34% | 55.5 nM
CC1CN(C(=O)C2CN(c3ccc(=O)n(C)n3)CC2c2ccc(Cl)cn2)CC(C)C1(O)c1ccc(F)c(F)c1 (stereo not shown) [Example 19] | 21 µL/min/mg | 50% | 6.5 nM

Continued, values first:

microsomal CLint at 1 μM [1] | inhibition at 3 μM (CYP3A4) | EC50 (MC4 receptor) | SMILES
31 µL/min/mg | 35% | 16.4 nM | COc1ccc(C2(O)C(C)CN(C(=O)C3CN(c4ccc(=O)n(C)n4)CC3c3ccc(Cl)cn3)CC2C)cc1 (stereo not shown) [Example 20]
144 µL/min/mg | 25% | 2.81 nM | CC1CN(C(=O)C2CN(c3ccc(=O)n(C)n3)CC2c2ccc(Cl)cn2)CC(C)C1(O)c1ccccc1 (stereo not shown) [Example 21]
179 µL/min/mg | 54% | 19.8 nM | C[C@@H]1CN(C(=O)[C@@H]2CN(c3ccc(=O)n(C)n3)C[C@H]2c2ccc(Cl)cn2)C[C@H](C)[C@@]1(O)c1ccccn1 [Example 22]
< 15.5 µL/min/mg | 35% | 4.75 nM | CC1CN(C(=O)C2CN(c3ccc(=O)n(C)n3)CC2c2ccc(Cl)cn2)CC(C)C1(O)c1ccc(Cl)cc1 (stereo not shown) [Example 23]
19.5 µL/min/mg | 45% |  | CC1CN(C(=O)C2CN(c3ccc(=O)[nH]n3)CC2c2ccc(F)cn2)CC(C)C1(O)c1ccccc1 (stereo not shown) [Example 37]
95 µL/min/mg | 30% |  | CC1CN(C(=O)C2CN(c3ccc(=O)n(C)n3)CC2c2ccc(F)cn2)CC(C)C1(O)c1ccccc1 (stereo not shown) [Example 39]
25 µL/min/mg | 59% |  | COc1ccc(C2CN(c3ccc(=O)[nH]n3)CC2C(=O)N2CC(C)C(O)(c3ccc(F)cc3)C(C)C2)nc1 (stereo not shown) [Example 42]
